pIC50: −log10 of the molar value.

This assay deals with TRAF2 and NCK-interacting protein kinase (Homo sapiens, UniProt Q9UKE5). The assay can be described thus: Kinase Assay: The kinase assays were conducted in a 20 μl volume using 384-well plates (Greiner). The reaction mixture consists of compound or vehicle (1% DMSO), 0.08 ng/μl TNIK_N, 1 μM FITC-labeled substrate peptides, including ε-aminocaproic acid and 7 amino acids (described as SEQ ID NO. 3 in "Kinase assay of TEST EXAMPLE 1" of WO 2010/064111(P.31)), 20 mM Hepes, pH 7.5, 0.01% Triton X-100, 5 mM MgCl2, 25 μM ATP and 2 mM DTT. As blank, TNIK_N was excluded from the reaction mixture of vehicle (1% DMSO). The kinase reaction was carried out 1 h at room temperature and terminated by addition of 60 μl of the termination buffer (127 mM Hepes, pH 7.5, 26.7 mM EDTA, 0.01% Triton X-100, 1% DMSO and 0.13% Coating Reagent 3 (Caliper Life Sciences)). The amount of unphosphorylated and phosphorylated FITC-labeled substrate peptides was detected by Mobility Shift Micro Fluidic Technology (Caliper LC3000 System, Caliper Life Sciences).
Sequence of TRAF2 and NCK-interacting protein kinase (Q9UKE5 whole entry): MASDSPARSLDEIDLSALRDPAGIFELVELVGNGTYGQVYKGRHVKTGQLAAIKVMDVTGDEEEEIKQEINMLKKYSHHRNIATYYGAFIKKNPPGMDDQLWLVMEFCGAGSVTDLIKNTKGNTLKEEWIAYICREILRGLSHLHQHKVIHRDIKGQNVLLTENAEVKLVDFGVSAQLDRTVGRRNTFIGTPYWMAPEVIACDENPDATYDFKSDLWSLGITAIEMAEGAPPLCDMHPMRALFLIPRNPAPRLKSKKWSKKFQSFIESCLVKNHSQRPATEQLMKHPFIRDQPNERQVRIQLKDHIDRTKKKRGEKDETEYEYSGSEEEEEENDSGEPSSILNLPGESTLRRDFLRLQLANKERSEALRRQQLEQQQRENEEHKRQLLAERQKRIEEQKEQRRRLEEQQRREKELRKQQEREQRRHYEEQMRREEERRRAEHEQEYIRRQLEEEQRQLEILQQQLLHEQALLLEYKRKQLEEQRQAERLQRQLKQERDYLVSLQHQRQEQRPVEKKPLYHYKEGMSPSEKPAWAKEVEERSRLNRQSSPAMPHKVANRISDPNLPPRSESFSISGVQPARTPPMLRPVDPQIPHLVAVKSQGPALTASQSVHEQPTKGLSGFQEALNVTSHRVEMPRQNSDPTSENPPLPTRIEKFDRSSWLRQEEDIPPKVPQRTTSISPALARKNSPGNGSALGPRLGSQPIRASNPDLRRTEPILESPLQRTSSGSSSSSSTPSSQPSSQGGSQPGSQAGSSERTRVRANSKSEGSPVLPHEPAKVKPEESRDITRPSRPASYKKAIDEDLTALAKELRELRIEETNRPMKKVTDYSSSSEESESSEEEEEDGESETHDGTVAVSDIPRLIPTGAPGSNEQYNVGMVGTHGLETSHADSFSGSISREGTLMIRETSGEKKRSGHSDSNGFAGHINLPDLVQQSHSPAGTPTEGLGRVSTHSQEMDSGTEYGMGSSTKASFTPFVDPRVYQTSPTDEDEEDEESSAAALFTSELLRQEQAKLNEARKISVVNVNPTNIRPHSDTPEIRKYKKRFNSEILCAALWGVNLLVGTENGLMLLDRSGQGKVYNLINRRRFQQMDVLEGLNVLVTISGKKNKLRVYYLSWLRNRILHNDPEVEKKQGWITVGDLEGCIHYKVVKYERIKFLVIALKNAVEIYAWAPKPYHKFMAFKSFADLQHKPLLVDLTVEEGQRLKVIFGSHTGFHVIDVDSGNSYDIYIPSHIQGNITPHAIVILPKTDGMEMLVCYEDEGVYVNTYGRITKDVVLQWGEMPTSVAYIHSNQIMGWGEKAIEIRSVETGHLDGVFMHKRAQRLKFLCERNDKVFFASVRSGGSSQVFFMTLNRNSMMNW
In the case of `CC#CC(=O)Nc1sc(Nc2ccc3ccccc3c2)nc1C(N)=O`, the pIC50 (as a rule, the negative decadic logarithm of the IC50, by convention in mol/L) is 8.36.
As to `NC(=O)c1nc(Nc2ccc3ccccc3c2)sc1NC(=O)c1ccc(Cn2ccnc2[N+](=O)[O-])cc1`, the pIC50 was 8.02.
On to `NC(=O)c1nc(Nc2ccc3cc(F)ccc3c2)sc1NC(=O)c1ccc(NCCO)cc1`, for which the pIC50 was 7.65.
